Here are results for 29 compounds from patent US12338237B2, “Derivatives having 1,2,3,4-tetrahydronaphthalene moiety or pharmaceutically acceptable salt thereof and pharmaceutical compositions comprising the same” (YUHAN CORPORATION, priority 2019, dated 2025).

One assay deals with GM1 production. The experiment in a line: cells. The format is cell-based. The note with it: Homo sapiens, Jurkat, 72 h.
The target of assay [1] is glucosylceramide synthase (GCS) (Homo sapiens (Human), UniProt Q16739). Description: Evaluation of inhibitory activities against GCS (enzyme reaction with A549 cell lysate, NBD C6-ceramide, HPLC fluorescence). The format is biochemical. The note with it: GCS activity in A549 cell lysate, 37° C. for 90 minutes. The method in brief: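 Lysate of A549 cells in 50 mM HEPES pH 7.3 incubated with test compound and NBD C6-ceramide at 37 °C for 90 min; lipids extracted with chloroform/methanol and GlcCer and ceramide peaks quantified by HPLC fluorescence. Activity from GlcCer area fraction, normalised between DMSO and ibiglustat controls.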
Sequence of glucosylceramide synthase (GCS) (Q16739 whole entry, looked up): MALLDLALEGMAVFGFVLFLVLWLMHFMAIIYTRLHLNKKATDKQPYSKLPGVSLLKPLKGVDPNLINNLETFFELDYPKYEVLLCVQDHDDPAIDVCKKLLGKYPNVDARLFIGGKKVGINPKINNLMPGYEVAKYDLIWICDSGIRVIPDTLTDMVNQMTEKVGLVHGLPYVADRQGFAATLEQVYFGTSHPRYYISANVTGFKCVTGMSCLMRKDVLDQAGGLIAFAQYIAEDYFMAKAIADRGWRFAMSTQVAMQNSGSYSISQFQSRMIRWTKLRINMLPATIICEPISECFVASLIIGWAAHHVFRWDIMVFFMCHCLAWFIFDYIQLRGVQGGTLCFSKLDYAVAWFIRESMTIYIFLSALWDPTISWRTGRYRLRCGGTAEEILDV

Consider `CC(C)Cc1ccc(-c2ccc3c(c2)CCCC3NC(=O)O[C@@H]2CN3CCC2CC3)cc1` (stereo partly drawn) [Example 35, (S)-quinuclidin-3-yl (6-(4-isobutylphenyl)-1,2,3,4-tetrahydronaphthalen-1-yl)carbamate], for which the values for the IC50 (in the assay on GM1 production; in assay [1]) were 0.265 µM and 0.00916 µM, respectively.
On the same counts, the results for `O=C(NC1CCCc2cc(-c3cccc(F)c3)ccc21)O[C@@H]1CN2CCC1CC2` (stereo partly drawn) [Example 5, (S)-quinuclidin-3-yl (6-(3-fluorophenyl)-1,2,3,4-tetrahydronaphthalen-1-yl)carbamate] are 0.0272 µM and 0.000989 µM.
As to `O=C(NC1c2cc(-c3ccc(F)cc3)ccc2CCC12CC2)O[C@@H]1CN2CCC1CC2` (stereo partly drawn) [Example 171, (S)-quinuclidin-3-yl (7′-(4-fluorophenyl)-3′,4′-dihydro-1′H-spiro[cyclopropane-1,2′-naphthalen]-1′-yl)carbamate], the IC50 was determined as 0.0949 µM in the assay on GM1 production and 0.00533 µM in assay [1].
For `CCCOc1c(C)cc(-c2cc3c(cc2OC)C(NC(=O)O[C@@H]2CN4CCC2CC4)C(C)(C)CC3)cc1C` (stereo partly drawn) [Example 234, (S)-quinuclidin-3-yl (6-(3,5-dimethyl-4-propoxyphenyl)-7-methoxy-2,2-dimethyl-1,2,3,4-tetrahydronaphthalen-1-yl)carbamate] the same measures were 0.0149 µM and 0.00145 µM.
As to `COc1ccc(-c2ccc3c(c2)CCC(C)(C)C3NC(=O)O[C@@H]2CN3CCC2CC3)cc1F` (stereo partly drawn) [Example 126, (S)-quinuclidin-3-yl (6-(3-fluoro-4-methoxyphenyl)-2,2-dimethyl-1,2,3,4-tetrahydronaphthalen-1-yl)carbamate], the IC50 with GM1 production came out at 0.00189 µM; in assay [1] it was 0.00083 µM.
For `CC1(C)CCc2ccc(-c3ccc(OC(F)(F)F)cc3)cc2C1NC(=O)O[C@@H]1CN2CCC1CC2` (stereo partly drawn) [Example 154, (S)-quinuclidin-3-yl (2,2-dimethyl-7-(4-(trifluoromethoxy)phenyl)-1,2,3,4-tetrahydronaphthalen-1-yl)carbamate] the same measures were 0.0177 µM and 0.0084 µM.
As to `COCOc1ccccc1-c1ccc2c(c1)C(NC(=O)O[C@@H]1CN3CCC1CC3)C(C)(C)CC2` (stereo partly drawn) [Example 170, (S)-quinuclidin-3-yl (7-(2-(methoxymethoxy)phenyl)-2,2-dimethyl-1,2,3,4-tetrahydronaphthalen-1-yl)carbamate], the figures for the IC50 (in the assay with GM1 production; in assay [1]) were 0.039 µM and 0.00941 µM, respectively.
On the same counts, the results for `COc1cccc(-c2ccc3c(c2)CCC2(CC2)C3NC(=O)O[C@@H]2CN3CCC2CC3)c1OC` (stereo partly drawn) [Example 209, (S)-quinuclidin-3-yl (6′-(2,3-dimethoxyphenyl)-3′,4′-dihydro-1′H-spiro[cyclopropane-1,2′-naphthalen]-1′-yl)carbamate] are 0.047 µM and 0.0152 µM.
Regarding `CC1(C)CCc2ccc(-c3ccccc3F)cc2C1NC(=O)O[C@@H]1CN2CCC1CC2` (stereo partly drawn) [Example 159, (S)-quinuclidin-3-yl (7-(2-fluorophenyl)-2,2-dimethyl-1,2,3,4-tetrahydronaphthalen-1-yl)carbamate], the IC50 in the assay with GM1 production is 0.0498 µM; in assay [1], 0.0109 µM.
On the same counts, the results for `O=C(NC1c2cc(-c3ccccc3C(F)(F)F)ccc2CCC12CC2)O[C@@H]1CN2CCC1CC2` (stereo partly drawn) [Example 181, (S)-quinuclidin-3-yl (7′-(2-(trifluoromethyl)phenyl)-3′,4′-dihydro-1′H-spiro[cyclopropane-1,2′-naphthalen]-1′-yl)carbamate] are 0.0917 µM and 0.0127 µM.
For `COCOc1ccc(-c2ccc3c(c2)C(NC(=O)O[C@@H]2CN4CCC2CC4)C2(CC3)CC2)cc1` (stereo partly drawn) [Example 185, (S)-quinuclidin-3-yl (7′-(4-(methoxymethoxy)phenyl)-3′,4′-dihydro-1′H-spiro[cyclopropane-1,2′-naphthalen]-1′-yl)carbamate] the same measures were 0.073 µM and 0.0148 µM.
Take `O=C(NC1CCCc2cc(-c3ccccc3F)ccc21)O[C@@H]1CN2CCC1CC2` (stereo partly drawn) [Example 9, (S)-quinuclidin-3-yl (6-(2-fluorophenyl)-1,2,3,4-tetrahydronaphthalen-1-yl)carbamate]: the IC50 in the assay with GM1 production was 0.0413 µM; in assay [1] it was 0.00265 µM.
On to `CC(C)(C)c1cccc(-c2ccc3c(c2)CCCC3NC(=O)O[C@@H]2CN3CCC2CC3)c1` (stereo partly drawn) [Example 39, (S)-quinuclidin-3-yl (6-(3-(tert-butyl)phenyl)-1,2,3,4-tetrahydronaphthalen-1-yl)carbamate], for which the IC50 with GM1 production is 0.849 µM; in assay [1], 0.00288 µM.
For the compound `Cc1ccc(-c2ccc3c(c2)CCCC3NC(=O)O[C@@H]2CN3CCC2CC3)cc1` (stereo partly drawn) [Example 14, (S)-quinuclidin-3-yl (6-(p-tolyl)-1,2,3,4-tetrahydronaphthalen-1-yl)carbamate], the IC50 in the assay on GM1 production worked out at 0.0617 µM; in assay [1], 0.0088 µM.
For `Cc1ccccc1-c1ccc2c(c1)C(NC(=O)O[C@@H]1CN3CCC1CC3)CCC2` (stereo partly drawn) [Example 74, (S)-quinuclidin-3-yl (7-(o-tolyl)-1,2,3,4-tetrahydronaphthalen-1-yl)carbamate] the same measures were 0.0544 µM and 0.0144 µM.
On the same counts, the results for `CC1(C)CCc2cc(-c3ccc(F)cc3)ccc2C1NC(=O)O[C@@H]1CN2CCC1CC2` (stereo partly drawn) [Example 86, (S)-quinuclidin-3-yl (6-(4-fluorophenyl)-2,2-dimethyl-1,2,3,4-tetrahydronaphthalen-1-yl)carbamate] are 0.0142 µM and 0.0026 µM.
With `CC1(C)CCc2cc(-c3ccccc3Cl)ccc2C1NC(=O)O[C@@H]1CN2CCC1CC2` (stereo partly drawn) [Example 95, (S)-quinuclidin-3-yl (6-(2-chlorophenyl)-2,2-dimethyl-1,2,3,4-tetrahydronaphthalen-1-yl)carbamate], the IC50 turned out to be 0.000123 µM with GM1 production and 0.00085 µM in assay [1].
For `COCCOc1ccc(-c2ccc3c(c2)CCC(C)(C)C3NC(=O)O[C@@H]2CN3CCC2CC3)cc1` (stereo partly drawn) [Example 110, (S)-quinuclidin-3-yl (6-(4-(2-methoxyethoxy)phenyl)-2,2-dimethyl-1,2,3,4-tetrahydronaphthalen-1-yl)carbamate] the same measures were 0.00029 µM and 0.00064 µM.
For the compound `COCOc1ccc(-c2ccc3c(c2)C(NC(=O)O[C@@H]2CN4CCC2CC4)C(C)(C)CC3)cc1` (stereo partly drawn) [Example 168, (S)-quinuclidin-3-yl (7-(4-(methoxymethoxy)phenyl)-2,2-dimethyl-1,2,3,4-tetrahydronaphthalen-1-yl)carbamate], the IC50 in the assay with GM1 production amounted to 0.0707 µM; in assay [1] it was 0.0179 µM.
`CCCc1ccc(-c2cc3c(cc2OC)C(NC(=O)O[C@@H]2CN4CCC2CC4)C(C)(C)CC3)cc1` (stereo partly drawn) [Example 235, (S)-quinuclidin-3-yl (7-methoxy-2,2-dimethyl-6-(4-propylphenyl)-1,2,3,4-tetrahydronaphthalen-1-yl)carbamate]: the IC50 in the assay with GM1 production is 0.0032 µM; in assay [1] it was 0.00019 µM.
Take `CCCc1ccc(-c2ccc3c(c2)CCCC3NC(=O)O[C@@H]2CN3CCC2CC3)cc1` (stereo partly drawn) [Example 32, (S)-quinuclidin-3-yl (6-(4-propylphenyl)-1,2,3,4-tetrahydronaphthalen-1-yl)carbamate]: the results for the IC50 (in the assay with GM1 production; in assay [1]) were 0.475 µM and 0.00831 µM, respectively.
For `O=C(NC1CCCc2ccc(-c3ccccc3C(F)(F)F)cc21)O[C@@H]1CN2CCC1CC2` (stereo partly drawn) [Example 63, (S)-quinuclidin-3-yl (7-(2-(trifluoromethyl)phenyl)-1,2,3,4-tetrahydronaphthalen-1-yl)carbamate] the same measures were 0.0418 µM and 0.0067 µM.
With `O=C(NC1CCCc2cc(-c3ccc(OC(F)(F)F)cc3)ccc21)O[C@@H]1CN2CCC1CC2` (stereo partly drawn) [Example 4, (S)-quinuclidin-3-yl (6-(4-(trifluoromethoxy)phenyl)-1,2,3,4-tetrahydronaphthalen-1-yl)carbamate], the IC50 in the assay with GM1 production turned out to be 0.0349 µM; in assay [1], 0.00142 µM.
Take `CC1(C)CCc2cc(-c3ccc(C(F)(F)F)cc3)ccc2C1NC(=O)O[C@@H]1CN2CCC1CC2` (stereo partly drawn) [Example 88, (S)-quinuclidin-3-yl (2,2-dimethyl-6-(4-(trifluoromethyl)phenyl)-1,2,3,4-tetrahydronaphthalen-1-yl)carbamate]: the IC50 with GM1 production was determined as 0.0113 µM; in assay [1], 0.0035 µM.
For `O=C(NC1c2cc(-c3ccc(C(F)(F)F)cc3)ccc2CCC12CC2)O[C@@H]1CN2CCC1CC2` (stereo partly drawn) [Example 173, (S)-quinuclidin-3-yl (7′-(4-(trifluoromethyl)phenyl)-3′,4′-dihydro-1′H-spiro[cyclopropane-1,2′-naphthalen]-1′-yl)carbamate] the same measures were 0.0189 µM and 0.00161 µM.
For `COc1cc2c(cc1-c1ccnc(OC(C)(C)C)c1)CCC(C)(C)C2NC(=O)O[C@@H]1CN2CCC1CC2` (stereo partly drawn) [Example 237, (S)-quinuclidin-3-yl (6-(2-(tert-butoxy)pyridin-4-yl)-7-methoxy-2,2-dimethyl-1,2,3,4-tetrahydronaphthalen-1-yl)carbamate] the same measures were 0.0188 µM and 0.00184 µM.
For `COCCOc1ccccc1-c1ccc2c(c1)CCC1(CC1)C2NC(=O)O[C@@H]1CN2CCC1CC2` (stereo partly drawn) [Example 196, (S)-quinuclidin-3-yl (6′-(2-(2-methoxyethoxy)phenyl)-3′,4′-dihydro-1′H-spiro[cyclopropane-1,2′-naphthalen]-1′-yl)carbamate] the same measures were 0.0252 µM and 0.00602 µM.
As for `O=C(NC1CCCc2cc(-c3cc(Cl)ccc3Cl)ccc21)O[C@@H]1CN2CCC1CC2` (stereo partly drawn) [Example 23, (S)-quinuclidin-3-yl (6-(2,5-dichlorophenyl)-1,2,3,4-tetrahydronaphthalen-1-yl)carbamate], the results for the IC50 (with GM1 production; in assay [1]) were 0.0277 µM and 0.0018 µM, respectively.
On the same counts, the results for `O=C(NC1c2cc(-c3cccc(C(F)(F)F)c3)ccc2CCC12CC2)O[C@@H]1CN2CCC1CC2` (stereo partly drawn) [Example 177, (S)-quinuclidin-3-yl (7′-(3-(trifluoromethyl)phenyl)-3′,4′-dihydro-1′H-spiro[cyclopropane-1,2′-naphthalen]-1′-yl)carbamate] are 0.17 µM and 0.0235 µM.

By IC50 is commonly meant the concentration that inhibits the measured activity by half. A higher IC50 goes with a need for much substance.
